According to patent publication US20040171795A1, “Novel peptides” (priority 2000, published 2004):

Legend:
[1] = tested on: Vero; experiment: Luciferase plasmid introduction versus phosphatidyl serine translocation; format: cell-based, monkey
Source text: (§1) A cell line established from monkey kidney (Vero cell) and a human bladder cancer cell (T24 cell) purchased from American Type Culture Collection (ATCC) and human lung cancer cell (A549 cell) purchased from Dainippon Pharmaceutical were inoculated on a 24 well culture plate (manufactured by NALGEN NUNC) at 1×10^5 cells/well. Vero cell and A549 cell were cultivated in DMEM (manufactured by Life Technologies Oriental) supplemented with 10% fetal bovine serum (hereinafter referred to as FBS, manufactured by NICHIREI), and T24 cell was cultivated in McCoy's 5a (manufactured by Life Technologies Oriental) supplemented with 10% FBS in 5% CO2 atmosphere at 37° C. for 24 hours. […] The luciferase activity expressed in the cell was then measured by the method instructed in luciferase assay system (manufactured by Promega). […] 20 μL of this cell lysate and 100 μL of the Luciferase Assay Reagent II attached to the kit was added to a fluorescence-measuring plate (Microlite™ 1 plate, manufactured by Dynatech), and after mixing, fluorescence was measured for 1 second by using a multilabel counter (ARVO™ SY1420 MULTILABEL COUNTER, manufactured by Wallac Beltold. […]

[2] = Measurement of turbidity in BSA; format: physicochemical; conditions: BSA 1%, peptide 50 μM, absorbance at 600 nm
Method: The solutions were evaluated for their absorbance at a wavelength of 600 nm by using a spectrophotometer (DU640, manufactured by Beckman).

[3] = Affinity for phosphatidyl serine (EIA, inhibition of human Factor VIII binding); conditions: class of IC50 for inhibiting human Factor VIII binding, 5% BSA
Method: The specific affinity of the peptide for phosphatidyl serine was evaluated by measuring activity of the peptide for inhibiting the binding of the human Factor VIII to phosphatidyl serine by using human Factor VIII which is known to bind to phosphatidyl serine but not to phosphatidyl choline in the presence of serum albumin. To be more specific, 100 μL of ethanol solution containing 10 μg/mL of phospholipids at a phosphatidyl serine (manufactured by SIGMA): phosphatidyl choline (manufactured by SIGMA) ratio of 3:7 was added to the wells of a 96 well plate (Immulon I, manufactured by Dynatech), and exsiccated by using a centrifugal evaporator (EC-95C, manufactured by Sakuma Seisakusho) at 40° C. for 40 minutes. 200 μL each of TBS (10 mM Tris-HCl (pH 7.4) containing 1% bovine serum albumin (BSA Fraction V, hereinafter referred to as BSA, manufactured by Seikagaku Corporation) and 0.9% (W/V) NaCl solution were added to each well, and the wells were blocked by allowing the plate to stand at 37° C. for 2.5 hours. After washing the plate with water, 100 μL of TBS solution supplemented with 5% BSA mixed with human Factor VIII (manufactured by American Diagnostica) at a final concentration 1 μg/mL and the peptide of predetermined dose prepared in Example 1 was added to each well, and the reaction was allowed to take place at 4° C. for 24 hours.
After the completion of the reaction, the human Factor VIII that became bound to the phosphatidyl serine was measured by enzyme immunoassay (EIA) in accordance with the general procedure described in a book (“Enzyme Immunoassay (3rd ed.)”, Eiji Ishikawa et al., Igaku-Shoin, 1987). To be more specific, the measurement was conducted by using anti-human Factor VIII mouse monoclonal antibody (ESH8, manufactured by American Diagnostica) for the primary antibody, horseradish peroxidase-labeled anti-mouse IgG antibody (P0260, manufactured by Daco) for the secondary antibody, and tetramethylbenzidine for the chromogenic substrate, and measuring the absorption at a wavelength of 450 nm by using a reference wavelength of 630 nm on a spectrophotometer (NJ-2100, manufactured by Intermed).
Intensity of the affinity of the peptide for the phosphatidyl serine was evaluated by using the value obtained by subtracting the absorption of the well having no human Factor VIII added thereto from the absorption of the well having only the human Factor VIII added thereto as the control value (100%), and designating the peptide concentration at which the value 0.5 was obtained when the value obtained by subtracting the absorption of the well having only the peptide added thereto from the absorption of the well having a mixture of the human Factor VIII and the peptide added thereto were divided by the control value as the IC50 value, and evaluating the intensity to be ++ when the IC50 value was up to 1 μM, and +when the intensity was more than 1 μM but not more than 10 μM. It is to be noted that the specific affinity was evaluated to be none when the intensity was 10 μM or more.

[4] = tested on: T24; experiment: Luciferase plasmid introduction versus phosphatidyl serine translocation; format: cell-based, human
Source text: as §1

[5] = tested on: A549; experiment: as above; format: cell-based, human
Source text: as §1

- Luciferase activity [1]: 2.5 × 10^6 cps/mg protein
- IC50 [3]: < 1000 nM
- Luciferase activity [4]: 7.8 × 10^3 cps/mg protein
- Luciferase activity [5]: 8.7 × 10^4 cps/mg protein
Substance: SEQ ID NO: 1: peptide having the amino acid sequence of SEQ ID NO:1, made by solid phase synthesis (TRYLRIHPRSWVHQIALRLRYLRIHPRSWVHQIALRS; synthetic peptide using an automatic peptide synthesizer)
- OD 600 [2]: 0.03
